According to patent publication US11440923B2, “Substituted macrocyclic indole derivatives” (Bayer Aktiengesellschaft, priority 2017, dated 2022):
Structures can show the parent of a compound that is named as a salt. Where two headings read alike, the source gives them in different places.

Columns and labels:
Format in all cases: cell-based
SUDHL10 cells [1] = test: Induction of caspase-3/7 activity in SUDHL10 cells (Assay 4)
Protocol: (§1) Induction of Caspase-3/7 Activity Upon Treatment of Cells with Selected Compounds
(§2) The BH3-domain of MCL-1 sequesters pro-apoptotic proteins, thereby inhibiting apoptosis. In contrast, MCL-1 inhibitors are expected to antagonize this effect leading to an increase in apoptosis, which can be determined by measuring the activity of caspase-3/7.
(§3) The activity of caspase-3/7 was determined in DLBCL (Diffuse large B-cell lymphoma) cell lines (SUDHL5 and SUDHL10) upon treatment with different compounds, using the Caspase-Glo® 3/7 reagent from Promega (G8092).
(§4) As a control, medium without cells was also added to the plate. Cells were incubated in a humidified incubator at 37° C. overnight.
(§5) Rim wells were excluded. The cells were incubated for 3 h hours in a humidified incubator at 37° C. After this incubation, 30 μL of Caspase-Glo® 3/7 reagent (Promega G8092) was added to each well using the Multidrop Combi Reagent Dispenser, followed by 1 h incubation at 37° C. Finally, luminescence was read at 0.1 ms, with a gain of 3000 using the PHERAstar FS microplate reader (BMG Labtech).
(§6) For the evaluation of the results, the background measured with “medium-only” was subtracted from all other values. Then, the values were normalized to DMSO-only treated cells (every value was divided by the mean of the DMSO control).

SUDHL5 cells [2] = test: Induction of caspase-3/7 activity in SUDHL5 cells (Assay 4)
Protocol: as §1, §2, §3, §4, §5, §6

SUDHL5 cells [3] = test: Induction of cytotoxicity in SUDHL5 cells (Assay 6); details: 5 h, CellTiter-Glo; read-out: Cytotox SUDHL5 IC50 (median)
Protocol: (§7) Assay 6 Induction of Cytotoxicity Upon Treatment of Cells with Selected Compounds
(§8) In principle, compounds that induce apoptosis will concomitantly induce cell cytotoxicity. Therefore, cytotoxicity assays were run in parallel in SUDHL5 and SUDHL10 cells.
(§9) As a control, medium without cells was also added to the plate. Cells were incubated in a humidified incubator at 37° C. overnight. […] Rim wells were excluded. The cells were incubated for 5 h hours in a humidified incubator at 37° C. After this incubation, 30 μL of CellTiter-Glo® Luminescent Cell Viability reagent (Promega, G7573) was added to each well using the Multidrop Combi Reagent Dispenser, followed by 15 min incubation on a shaker at room temperature. Finally, luminescence was read at 0.1 ms, with a gain of 3000 using the PHERAstar FS microplate reader (BMG Labtech).

SUDHL5 cells [4] = test: Antiproliferation assay SUDHL5 (Assay 7); details: 72 h, CellTiter-Glo; read-out: Antiproli SUDHL5 IC50 (median)
Protocol: (§10) Assessment of the Anti-Proliferative Effect of Compounds in Different Cell Lines
(§11) The impact of compounds on the proliferation of different cell lines was assessed using the CellTiter-Glo® Luminescent Cell Viability reagent from Promega (G7573).
(§12) In parallel, cells were plated in a reference (day 0) plate for time zero determination. Cells were incubated in a humidified incubator at 37° C. overnight.
(§13) Rim wells were excluded. The cells were incubated for 72 h hours in a humidified incubator at 37° C. The day 0 plate was measured by adding 30 μL/well of CTG solution (CellTiter-Glo® Luminescent Cell Viability reagent, Promega G7573) to time zero wells in the reference plate followed by a 10 minutes incubation and luminescence reading at 0.1 ms. using the PHERAstar FS microplate reader (BMG Labtech).
(§14) After 72 h incubation, the treated plates were measured in the same way as the day 0 plate mentioned above. The Bella DRC Master Sheet was used to calculate IC50s, with CI=day 0 values and C0=DMSO control values.

HMC-1-8 cells = test: Antiproliferation assay HMC-1-8 (Assay 7)
Protocol: as §10, §11, §12, §13, §14

AMO-1 cells = test: Antiproliferation assay AMO-1 (Assay 7)
Protocol: as §10, §11, §12, §13, §14

SUDHL10 cells [5] = test: Induction of cytotoxicity in SUDHL10 cells (Assay 6); details: 5 h, CellTiter-Glo; read-out: Cytotox SUDHL10 IC50 (median)
Protocol: as §7, §8, §9

[6] = caspase-3/7 induction, 3 h; read-out: Caspase SUDHL10 EC50 (median)
[7] = caspase-3/7 induction, 3 h; read-out: Caspase SUDHL5 EC50 (median)
[8] = 72 h, CellTiter-Glo; read-out: Antiproli HMC-1-8 IC50 median
[9] = 72 h, CellTiter-Glo; read-out: Antiproli AMO-1 IC50 median

Compound | EC50 (SUDHL10 cells [1]; [6]) [nM] | EC50 (SUDHL5 cells [2]; [7]) [nM] | IC50 (SUDHL5 cells [4]) [nM] | IC50 (SUDHL5 cells [3]) [nM] | IC50 (HMC-1-8 cells; [8]) [nM] | IC50 (AMO-1 cells; [9]) [nM] | IC50 (HMC-1-8 cells; 72 h, CellTiter-Glo, read-out: Antiproli HMC-1-8 IC50 median) [nM] | IC50 (SUDHL10 cells [5]) [nM] | EC50 (SUDHL10 cells [1]; read-out: Caspase SUDHL10 EC50 (median); caspase-3/7 induction, 3 h) [nM] | EC50 (SUDHL5 cells [2]; read-out: Caspase SUDHL5 EC50 (median); caspase-3/7 induction, 3 h) [nM] | IC50 (HMC-1-8 cells; read-out: Antiproli HMC-1-8 IC50 median; 72 h, CellTiter-Glo) [nM] | IC50 (AMO-1 cells; read-out: Antiproli AMO-1 IC50 median; 72 h, CellTiter-Glo) [nM]
CCc1c2c(nn1C)C(CCN1CCOCC1)OCC(F)(F)CCn1c(C(=O)O)c(CCCOc3cccc4cc(F)ccc34)c3ccc(Cl)c-2c31 (single isomer, unassigned; (+)) [Example 87, (+)-4-chloro-3-ethyl-12,12-difluoro-7-{3-[(6-fluoronaphthalen-1-yl)oxy]propyl}-2-methyl-15-[2-(morpholin-4-yl)ethyl]-2,10,11,12,13,15-hexahydropyrazolo[4′,3′:9,10][1,6]oxazacycloundecino[8,7,6-hi]indole-8-carboxylic Acid] | 84 | 58 | 68 | 61 | 1500 | 63.9 | – | – | – | – | – | –
CCc1c2c(nn1C)C(CCN1CCOCC1)OCCCCn1c(C(=O)O)c(CCCOc3cccc4cc(F)ccc34)c3ccc(Cl)c-2c31 (single isomer, unassigned; enantiomer 1) [Example 23, (+)-4-chloro-3-ethyl-7-{3-[(6-fluoronaphthalen-1-yl)oxy]propyl}-2-methyl-15-[2-(morpholin-4-yl)ethyl]-2,10,11,12,13,15-hexahydropyrazolo[4′,3′:9,10][1,6]oxazacycloundecino[8,7,6-hi]indole-8-carboxylic Acid—N-ethylethanamine (Enantiomer 1)] | – | – | – | 7.8 | – | – | – | 9.7 | – | – | – | –
CCc1c2c(nn1C)C(CCN1CCOCC1)OCCCCn1c(C(=O)O)c(CCCOc3cccc4cc(F)ccc34)c3ccc(Cl)c-2c31 (single isomer, unassigned; enantiomer 2) [Example 24, (−)-4-chloro-3-ethyl-7-{3-[(6-fluoronaphthalen-1-yl)oxy]propyl}-2-methyl-15-[2-(morpholin-4-yl)ethyl]-2,10,11,12,13,15-hexahydropyrazolo[4′,3′:9,10][1,6]oxazacycloundecino[8,7,6-hi]indole-8-carboxylic acid—N-ethylethanamine (Enantiomer 2)] | – | – | – | 1700 | – | – | – | 6600 | – | – | – | –
CCc1c2c(nn1C)C(CCN1CCN(C)CC1)OCCCCn1c(C(=O)O)c(CCCOc3cccc4cc(F)ccc34)c3ccc(Cl)c-2c31 (single isomer, unassigned; stereoisomer 3) [Example 72, (−)-4-chloro-3-ethyl-7-{3-[(6-fluoronaphthalen-1-yl)oxy]propyl}-2-methyl-15-[2-(4-methylpiperazin-1-yl)ethyl]-2,10,11,12,13,15-hexahydropyrazolo[4′,3′:9,10][1,6]oxazacycloundecino[8,7,6-hi]indole-8-carboxylic Acid—N-ethylethanamine Salt (Stereoisomer 3)] | – | – | – | 96 | – | – | – | – | 54 | 74 | 2290 | 107
CCc1c2c(nn1C)[C@@H](CCN1CCOCC1)OCCCCn1c(C(=O)O)c(CCCOc3cccc4cc(F)ccc34)c3ccc(Cl)c-2c31 [Example 48, (15R)-4-chloro-3-ethyl-7-{3-[(6-fluoronaphthalen-1-yl)oxy]propyl}-2-methyl-15-[2-(morpholin-4-yl)ethyl]-2,10,11,12,13,15-hexahydropyrazolo[4′,3′:9,10][1,6]oxazacycloundecino[8,7,6-hi]indole-8-carboxylic Acid—N-ethylethanamine Salt] | – | – | – | 210 | – | – | – | 200 | – | – | – | –

Now from value to compound, other results behind:

EC50 (SUDHL10 cells [1]; [6]) [nM] | EC50 (SUDHL5 cells [2]; [7]) [nM] | IC50 (SUDHL5 cells [4]) [nM] | Compound | IC50 (SUDHL5 cells [3]) [nM] | IC50 (HMC-1-8 cells; [8]) [nM] | IC50 (AMO-1 cells; [9]) [nM] | IC50 (HMC-1-8 cells; 72 h, CellTiter-Glo, read-out: Antiproli HMC-1-8 IC50 median) [nM] | IC50 (SUDHL10 cells [5]) [nM] | EC50 (SUDHL10 cells [1]; read-out: Caspase SUDHL10 EC50 (median); caspase-3/7 induction, 3 h) [nM] | EC50 (SUDHL5 cells [2]; read-out: Caspase SUDHL5 EC50 (median); caspase-3/7 induction, 3 h) [nM] | IC50 (HMC-1-8 cells; read-out: Antiproli HMC-1-8 IC50 median; 72 h, CellTiter-Glo) [nM] | IC50 (AMO-1 cells; read-out: Antiproli AMO-1 IC50 median; 72 h, CellTiter-Glo) [nM]
23 | 20 | 20 | CCc1c2c(nn1C)C(CCN1CCOCC1)N(C)CCCCn1c(C(=O)O)c(CCCOc3cccc4cc(F)ccc34)c3ccc(Cl)c-2c31 (racemic) [Example 93, (rac)-4-chloro-3-ethyl-7-{3-[(6-fluoro-1-naphthyl)oxy]propyl}-2,14-dimethyl-(15-rac)-[2-(morpholin-4-yl)ethyl]-10,11,12,13,14,15-hexahydro-2H-pyrazolo[3′,4′:8,9][1,6]diazacycloundecino[10,11,1-hi]indole-8-carboxylic Acid] | 27 | 558 | 58.9 | – | – | – | – | – | –
28 | 19 | 30 | CCc1c2c(nn1C)C(CCN1CCOCC1)N(C)CCCCn1c(C(=O)O)c(CCCOc3cccc4cc(F)ccc34)c3ccc(Cl)c-2c31 (racemic) [Example 96, (rac)-4-chloro-3-ethyl-7-{3-[(6-fluoro-1-naphthyl)oxy]propyl}-2,14-dimethyl-15-(rac)-[2-(morpholin-4-yl)ethyl]-10,11,12,13,14,15-hexahydro-2H-pyrazolo[3′,4′:8,9][1,6]diazacycloundecino[10,11,1-hi]indole-8-carboxylic Acid] | 25 | 726 | – | – | – | – | – | – | –
59 | 76 | 71 | CCc1c2c(nn1C)C(CCN1CCOCC1)N(C)CCCCn1c(C(=O)O)c(CCCOc3cccc4ccccc34)c3ccc(Cl)c-2c31 (racemic) [Example 99, (rac)-4-chloro-3-ethyl-2,14-dimethyl-(15-rac)-[2-(morpholin-4-yl)ethyl]-7-{3-[(naphthalen-1-yl)oxy]propyl}-10,11,12,13,14,15-hexahydro-2H-pyrazolo[3′,4′:8,9][1,6]diazacycloundecino[10,11,1-hi]indole-8-carboxylic] | 100 | – | 86.3 | 1860 | – | – | – | – | –
3500 | 1500 | 2300 | CCc1c2c(nn1C)C(CCN1CCOCC1)N(C)CCCCn1c(C(=O)O)c(CCCOc3cccc4cc(F)ccc34)c3ccc(Cl)c-2c31 (single isomer, unassigned) [Example 95, 4-chloro-3-ethyl-7-{3-[(6-fluoronaphthalen-1-yl)oxy]propyl}-2,14-dimethyl-15-[2-(morpholin-4-yl)ethyl]-10,11,12,13,14,15-hexahydro-2H-pyrazolo[3′,4′:8,9][1,6]diazacycloundecino[10,11,1-hi]indole-8-carboxylic Acid] | 2200 | 8220 | 4300 | – | – | – | – | – | –
30 | 30 | 36 | CCc1c2c(nn1C)C(CCN1CCOCC1)OCC(F)(F)CCn1c(C(=O)O)c(CCCOc3cccc4cc(F)ccc34)c3ccc(Cl)c-2c31 (centres unmarked) [Example 89, 4-chloro-3-ethyl-12,12-difluoro-7-{3-[(6-fluoronaphthalen-1-yl)oxy]propyl}-2-methyl-15-[2-(morpholin-4-yl)ethyl]-2,10,11,12,13,15-hexahydropyrazolo[4′,3′:9,10][1,6]oxazacycloundecino[8,7,6-hi]indole-8-carboxylic Acid] | – | 765 | 29.5 | – | – | – | – | – | –
11 | 11 | 12 | CCc1c2c(nn1C)C(CCN1CCOCC1)N(C)CCCCn1c(C(=O)O)c(CCCOc3cccc4cc(F)ccc34)c3ccc(Cl)c-2c31 (centres unmarked) [Example 97, 4-chloro-3-ethyl-7-{3-[(6-fluoronaphthalen-1-yl)oxy]propyl}-2,14-dimethyl-15-[2-(morpholin-4-yl)ethyl]-10,11,12,13,14,15-hexahydro-2H-pyrazolo[3′,4′:8,9][1,6]diazacycloundecino[10,11,1-hi]indole-8-carboxylic Acid—N-ethylethanamine Salt] | – | 405 | 16.3 | – | – | – | – | – | –
